Laboratory results: the NIST ThermoML archive (doi:10.1016/j.jct.2016.03.026)

Test: xn = mol fraction of the nth substance listed
Details: 273.15 K, Fluid (supercritical or subcritical phases), x1 = 0.97; for mass density: Vibrating tube method; for speed of sound: Frequency=5 MHz, Pulse-echo method

O=C=O [carbon dioxide] + CO
Details	mass density [kg/m3]	speed of sound [m/s]
17075 kPa	1005.11	–
17100 kPa	1005.21	–
17125 kPa	1005.3	–
17150 kPa	1005.42	–
17175 kPa	1005.49	–
17200 kPa	1005.63	–
17225 kPa	1005.7	–
17250 kPa	1005.78	–
17275 kPa	1005.9	–
17300 kPa	1006.03	–
17325 kPa	1006.1	–
17350 kPa	1006.19	–
17375 kPa	1006.3	–
17400 kPa	1006.36	–
17425 kPa	1006.5	–
17450 kPa	1006.55	–
17475 kPa	1006.68	–
17500 kPa	1006.76	–
17525 kPa	1006.86	–
17550 kPa	1006.92	–
17575 kPa	1007.06	–
17600 kPa	1007.11	–
17625 kPa	1007.24	–
17650 kPa	1007.37	–
17675 kPa	1007.42	–
17700 kPa	1007.56	–
17725 kPa	1007.61	–
17750 kPa	1007.74	–
17775 kPa	1007.82	–
17800 kPa	1007.92	–
17825 kPa	1008.05	–
17850 kPa	1008.1	–
17875 kPa	1008.22	–
17900 kPa	1008.28	–
17925 kPa	1008.41	–
17950 kPa	1008.47	–
17975 kPa	1008.58	–
18000 kPa	1008.63	–
18025 kPa	1008.76	–
18050 kPa	1008.81	–
18075 kPa	1008.93	–
18100 kPa	1009.05	–
18125 kPa	1009.17	–
18150 kPa	1009.21	–
18175 kPa	1009.33	–
18200 kPa	1009.44	–
18225 kPa	1009.49	–
18250 kPa	1009.61	–
18275 kPa	1009.68	–
18300 kPa	1009.76	–
18325 kPa	1009.88	–
18350 kPa	1009.93	–
18375 kPa	1010.03	–
18400 kPa	1010.15	–
18425 kPa	1010.26	–
18450 kPa	1010.33	–
18475 kPa	1010.41	–
18500 kPa	1010.52	–
18525 kPa	1010.58	–
18550 kPa	1010.7	–
18575 kPa	1010.82	–
18600 kPa	1010.88	–
18625 kPa	1010.99	–
18650 kPa	1011.1	–
18675 kPa	1011.15	–
18700 kPa	1011.25	–
18725 kPa	1011.35	–
18750 kPa	1011.46	–
18775 kPa	1011.49	–
18800 kPa	1011.59	–
18825 kPa	1011.7	–
18850 kPa	1011.81	–
18875 kPa	1011.88	–
18900 kPa	1011.94	–
18925 kPa	1012.05	–
18950 kPa	1012.15	–
18975 kPa	1012.26	–
19000 kPa	1012.37	–
19025 kPa	1012.45	–
19050 kPa	1012.49	–
19075 kPa	1012.6	–
19100 kPa	1012.7	–
19125 kPa	1012.77	–
19150 kPa	1012.83	–
19175 kPa	1012.93	–
19200 kPa	1013.04	–
19225 kPa	1013.15	–
19250 kPa	1013.25	–
19275 kPa	1013.27	–
19300 kPa	1013.37	–
19325 kPa	1013.48	–
19350 kPa	1013.58	–
19375 kPa	1013.61	–
19400 kPa	1013.72	–
19425 kPa	1013.82	–
19450 kPa	1013.91	–
19475 kPa	1013.95	–
19500 kPa	1014.05	–
19525 kPa	1014.15	–
19550 kPa	1014.24	–
19575 kPa	1014.34	–
19600 kPa	1014.44	–
19625 kPa	1014.47	–
19650 kPa	1014.56	–
19675 kPa	1014.66	–
19700 kPa	1014.76	–
19725 kPa	1014.86	–
19750 kPa	1014.88	–
19775 kPa	1014.98	–
19800 kPa	1015.08	–
19825 kPa	1015.19	–
19850 kPa	1015.29	–
19875 kPa	1015.31	–
19900 kPa	1015.41	–
19910 kPa	–	735.5
19925 kPa	1015.5	–
19950 kPa	1015.6	–
19975 kPa	1015.7	–
20000 kPa	1015.77	–
24940 kPa	–	776.2
29980 kPa	–	812.6
35030 kPa	–	845.6
